3 compounds from paper PMC6777777 (PLoS ONE, 2019) can be followed below.

The target of data set [1] is T1, nicotinic acetylcholine receptor (nAChR) from Torpedo californica (Tetronarce californica, UniProt P02710+P02712+P02714+P02718).
T1 construct: flash-frozen Torpedo electric organ was purchased from Aquatic Research Consultants (San Pedro, CA); tissue Aquatic Research Consultants (San Pedro, CA); host or cells: Torpedo electric organ; Membranes were solubilized in cholate, reconstituted in asolectin liposomes and microinjected as protein into Xenopus oocytes
Kind of data set: Two-electrode voltage clamp: inhibition of carbachol-stimulated nAChR current. The data set is classed as cell-based. A general note: In two-electrode clamp one electrode senses voltage and the other passes current.

A short description of data set [2]: Titration curve of T3 (pK values). It counts as physicochemical.
In data set [3] the target is T1, nicotinic acetylcholine receptor (nAChR) from Torpedo californica. In words: TEVC desensitization kinetics: decay response of nAChR current, slow component of two-exponential fit. The data set is classed as cell-based. Further details: unit not given here. Here is the method: (§1) Sixteen hours after injection, the oocytes were clamped using a TEVC system. All ligands were dissolved in modified Barth’s solution at the indicated pH and were perfused into the chamber using a gravity-flow system. Thyroid hormones were initially dissolved in 0.1 M NaOH. […] Acetylcholine was applied to the bath surrounding the oocyte using a gravity-flow system at 10–13 mL/min. […] Each ligand perfusion lasted 60–70 seconds; after each perfusion, the bath solution was exchanged with ligand-free buffer until the current response signal had returned to baseline for at least 120 seconds before the next application of ligand(s). Data were recorded using iWorx LabScribe v1.959.
The data were then trimmed to begin with the response as it reached 0.96 of the response peak (to avoid false inflection points by signal noise just after the response’s maximum point), and end 35 seconds post-peak. The data were then fit to a two-degree exponential function (i.e., slow and fast response; y=a×e^−(x/A1)+b×e^−(x/A2) ). […] For each ligand/environmental condition (n = 3, per condition), decay response and amplitude were calculated and averaged.

The target is the same in data set [4]. In words: Two-electrode voltage clamp of oocytes injected with Torpedo nAChRs: inhibition of acetylcholine-stimulated current. The data set is classed as cell-based. The note with it: seen at ≥ 100 μM inhibitor, 30 μM acetylcholine. How it is done: as §1

T1 sequence (P02710 25-461): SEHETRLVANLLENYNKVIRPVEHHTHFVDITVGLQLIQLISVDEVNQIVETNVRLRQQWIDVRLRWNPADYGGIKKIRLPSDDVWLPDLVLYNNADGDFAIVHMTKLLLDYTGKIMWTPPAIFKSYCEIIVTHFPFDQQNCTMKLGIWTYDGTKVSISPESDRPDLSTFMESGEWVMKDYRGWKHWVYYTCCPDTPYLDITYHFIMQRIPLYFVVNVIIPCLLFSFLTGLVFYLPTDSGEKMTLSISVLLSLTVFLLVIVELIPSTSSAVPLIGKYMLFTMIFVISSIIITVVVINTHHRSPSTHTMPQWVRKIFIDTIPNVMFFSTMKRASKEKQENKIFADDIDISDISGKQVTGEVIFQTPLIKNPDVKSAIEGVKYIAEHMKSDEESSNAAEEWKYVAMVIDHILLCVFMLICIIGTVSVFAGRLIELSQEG
T1 sequence (P02712 25-493): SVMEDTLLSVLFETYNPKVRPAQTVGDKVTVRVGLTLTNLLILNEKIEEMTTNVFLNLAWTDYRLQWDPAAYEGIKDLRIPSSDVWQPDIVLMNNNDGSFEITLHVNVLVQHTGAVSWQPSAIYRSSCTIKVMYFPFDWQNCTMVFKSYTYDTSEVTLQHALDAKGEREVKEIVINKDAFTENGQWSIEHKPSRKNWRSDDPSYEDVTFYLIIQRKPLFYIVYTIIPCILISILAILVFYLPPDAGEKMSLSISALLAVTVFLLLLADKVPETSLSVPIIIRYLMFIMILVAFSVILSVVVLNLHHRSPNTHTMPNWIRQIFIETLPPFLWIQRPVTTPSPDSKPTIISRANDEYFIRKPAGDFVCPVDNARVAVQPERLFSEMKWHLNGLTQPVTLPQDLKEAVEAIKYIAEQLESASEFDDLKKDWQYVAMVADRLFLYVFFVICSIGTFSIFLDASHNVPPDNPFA
T1 sequence (P02714 18-506): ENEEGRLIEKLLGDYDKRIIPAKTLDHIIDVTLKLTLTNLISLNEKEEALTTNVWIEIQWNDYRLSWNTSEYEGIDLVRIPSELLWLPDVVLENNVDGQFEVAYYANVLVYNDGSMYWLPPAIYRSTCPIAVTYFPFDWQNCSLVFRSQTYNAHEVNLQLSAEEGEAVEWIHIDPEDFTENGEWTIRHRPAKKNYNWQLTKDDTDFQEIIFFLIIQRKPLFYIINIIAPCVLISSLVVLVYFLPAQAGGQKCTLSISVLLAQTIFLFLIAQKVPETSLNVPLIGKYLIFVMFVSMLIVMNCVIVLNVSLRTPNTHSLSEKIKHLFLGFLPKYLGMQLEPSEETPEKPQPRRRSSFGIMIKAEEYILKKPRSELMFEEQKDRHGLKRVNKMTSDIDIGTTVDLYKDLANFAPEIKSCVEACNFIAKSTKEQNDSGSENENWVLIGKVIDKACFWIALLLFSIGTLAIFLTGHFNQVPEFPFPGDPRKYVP
T1 sequence (P02718 22-522): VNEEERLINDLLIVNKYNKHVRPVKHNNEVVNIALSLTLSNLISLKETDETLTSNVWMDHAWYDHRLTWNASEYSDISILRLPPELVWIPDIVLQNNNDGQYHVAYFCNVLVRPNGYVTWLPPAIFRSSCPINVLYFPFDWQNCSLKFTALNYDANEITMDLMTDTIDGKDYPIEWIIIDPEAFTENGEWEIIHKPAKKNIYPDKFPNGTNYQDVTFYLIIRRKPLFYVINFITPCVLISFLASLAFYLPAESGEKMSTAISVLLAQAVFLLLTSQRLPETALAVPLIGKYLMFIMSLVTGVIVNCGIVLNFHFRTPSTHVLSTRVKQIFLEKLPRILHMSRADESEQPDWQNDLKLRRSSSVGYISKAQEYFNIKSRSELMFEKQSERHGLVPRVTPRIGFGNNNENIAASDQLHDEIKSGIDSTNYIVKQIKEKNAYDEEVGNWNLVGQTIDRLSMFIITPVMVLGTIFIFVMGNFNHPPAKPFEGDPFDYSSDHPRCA

Take `CC(=O)[C@H]1CC[C@H]2[C@@H]3CC[C@H]4C[C@H](O)CC[C@]4(C)[C@H]3CC[C@]12C` [Allopregnanolone, 3α-hydroxy-5α-pregnan-20-one]: in data set [1], the half-inhibitory concentration (IC50) was found to be 20 µM.
Regarding `N[C@@H](Cc1cc(I)c(Oc2ccc(O)c(I)c2)c(I)c1)C(=O)O` [T3, L-3,3’,5-triiodothyronine], in data set [2], the “pK3, hydroxy group” value was determined as 12.25.
Take pregnenolone sulfate [PS]: the “Decay Response Mean” value in data set [3] (dose 0.1 μM, pH 6, 30 μM acetylcholine) is on record as 17.0; in data set [3] (dose 0.1 μM, pH 6.5, 30 μM acetylcholine), 26.2; in data set [3] (dose 0.1 μM, pH 7, 30 μM acetylcholine) it was 32.7; in data set [3] (dose 0.1 μM, pH 7.5, 30 μM acetylcholine), 32.3; in data set [3] (dose 0.1 μM, pH 8, 30 μM acetylcholine), 20.8; in data set [3] (dose 0.1 μM, pH 8.5, 30 μM acetylcholine), 7.9. Besides, the “Decay Response Mean” value in data set [3] (dose 0.1 μM, pH 9, 30 μM acetylcholine) is reported as 31.9; in data set [3] (dose 1 μM, pH 6, 30 μM acetylcholine), 8.1; in data set [3] (dose 1 μM, pH 6.5, 30 μM acetylcholine), 24.9; in data set [3] (dose 1 μM, pH 7, 30 μM acetylcholine) it was 13.0; in data set [3] (dose 1 μM, pH 7.5, 30 μM acetylcholine), 11.9; in data set [3] (dose 1 μM, pH 8, 30 μM acetylcholine), 9.4. Besides, the “Decay Response Mean” value was 1.2 in data set [3] (dose 1 μM, pH 8.5, 30 μM acetylcholine); 18.5 in data set [3] (dose 1 μM, pH 9, 30 μM acetylcholine); 10.5 in data set [3] (dose 10 μM, pH 6, 30 μM acetylcholine); 11.00 in data set [3] (dose 10 μM, pH 6.5, 30 μM acetylcholine); 4.6 in data set [3] (dose 10 μM, pH 7, 30 μM acetylcholine); 4.8 in data set [3] (dose 10 μM, pH 7.5, 30 μM acetylcholine). Besides, the “Decay Response Mean” value in data set [3] (dose 10 μM, pH 8, 30 μM acetylcholine) was found to be 3.0; in data set [3] (dose 10 μM, pH 8.5, 30 μM acetylcholine), 3.2. In data set [4], the “apparent maximal effect: reduction of the nAChR control response” value is 81 ± 4%.

The term IC50 denotes the concentration at which inhibition is half-maximal.
